Publication PMC9889419 (Pharmacological Reports, 2022)
Counter-ions that a name gives are not always drawn.

What was measured:
CYP2E1 = target: T1, CYP2E1 (Homo sapiens, UniProt P05181); test: Human cytochrome P450 inhibition (human liver microsomes); format: in vitro ADME
T1 construct: The human liver microsomes used were selected from the bank of those commercially available; from tissue; host or cells: human liver microsomes
Protocol: (§1) The selective reactions utilized for each enzyme were as follows: CYP1A2—phenacetin deethylation, CYP2A6—coumarin 7-hydroxylation, CYP2B6—7-ethoxy-4-trifluoromethyl coumarin O-deethylation, CYP2C9—diclofenac 4-hydroxylation, CYP2C19—S-mephenytoin 4-hydroxylation, CYP2D6—bufuralol 1’-hydroxylation, CYP2E1—chlorzoxazone 6-hydroxylation, CYP3A4—testosterone 6β-hydroxylation. For inhibitory evaluation, human liver microsomes and the tested compound (added in methanol as a solvent) were incubated under aerobic conditions with cytochrome P450 isozyme-selective substrates and excess NADPH at 37 °C. Incubations were for time periods over which the reaction in the absence of the compound, were determined to be linear, and proportional to the protein concentration. The human liver microsomes used were selected from the bank of those commercially available to be especially rich in the amount of the cytochrome P450 isozyme under investigation. However, it is important to note that the microsomes contained all the other isozymes in addition, and if reaction/substrate was less than specific, the other isozymes may have contributed to a minor extent to the enzyme activity determined. Following incubation, the reaction was terminated, an internal standard added, the metabolic products extracted and separated by reverse phase HPLC. Each assay was performed in duplicate, and the mean value calculated. The HPLC elutions were monitored by UV absorbance for all CYP reactions except those for CYP2A6, CYP2B6 and CYP2D6 where fluorescence monitoring was employed. Quantification was by comparison with authentic metabolites.

CYP2C9 = target: T2, CYP2C9 (Homo sapiens, UniProt P11712); test: as above; format: in vitro ADME
T2 construct: from tissue; host or cells: human liver microsomes
T2 sequence (P11712 whole entry): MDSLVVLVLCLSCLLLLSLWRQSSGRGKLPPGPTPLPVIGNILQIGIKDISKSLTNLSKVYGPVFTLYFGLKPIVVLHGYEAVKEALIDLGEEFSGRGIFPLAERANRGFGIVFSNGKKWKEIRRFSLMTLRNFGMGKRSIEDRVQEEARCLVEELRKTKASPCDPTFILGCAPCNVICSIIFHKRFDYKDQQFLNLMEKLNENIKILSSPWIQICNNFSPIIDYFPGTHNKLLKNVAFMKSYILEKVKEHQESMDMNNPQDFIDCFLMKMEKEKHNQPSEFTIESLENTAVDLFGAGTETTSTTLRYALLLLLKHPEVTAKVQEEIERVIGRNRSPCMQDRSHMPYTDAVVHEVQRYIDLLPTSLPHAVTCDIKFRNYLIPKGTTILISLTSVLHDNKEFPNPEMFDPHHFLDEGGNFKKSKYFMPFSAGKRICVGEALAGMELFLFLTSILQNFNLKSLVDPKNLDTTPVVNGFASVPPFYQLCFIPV
Protocol: as §1

CYP2C19 = target: T3, CYP2C19 (Homo sapiens, UniProt P33261); test: as above; format: in vitro ADME
T3 construct: tissue Puracyp #011; host or cells: human liver microsomes
T3 sequence (P33261 whole entry): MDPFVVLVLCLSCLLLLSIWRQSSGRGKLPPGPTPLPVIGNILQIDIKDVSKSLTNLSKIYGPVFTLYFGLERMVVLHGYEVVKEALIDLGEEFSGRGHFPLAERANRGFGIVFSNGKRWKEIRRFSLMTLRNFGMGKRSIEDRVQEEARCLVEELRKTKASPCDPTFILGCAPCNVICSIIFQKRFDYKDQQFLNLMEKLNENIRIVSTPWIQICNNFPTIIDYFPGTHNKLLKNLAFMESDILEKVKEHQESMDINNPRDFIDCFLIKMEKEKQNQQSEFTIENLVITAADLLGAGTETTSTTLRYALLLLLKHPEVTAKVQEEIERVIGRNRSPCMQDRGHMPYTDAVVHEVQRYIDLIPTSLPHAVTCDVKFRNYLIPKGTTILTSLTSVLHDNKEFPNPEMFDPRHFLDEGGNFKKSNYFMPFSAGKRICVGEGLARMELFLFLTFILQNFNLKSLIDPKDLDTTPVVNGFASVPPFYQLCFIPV
Protocol: as §1

CYP3A4 = target: T4, CYP3A4 (Homo sapiens, UniProt P08684); test: as above; format: in vitro ADME
T4 construct: The human liver microsomes used were selected from the bank of those commercially available; from tissue; host or cells: human liver microsomes
T4 sequence (P08684 whole entry): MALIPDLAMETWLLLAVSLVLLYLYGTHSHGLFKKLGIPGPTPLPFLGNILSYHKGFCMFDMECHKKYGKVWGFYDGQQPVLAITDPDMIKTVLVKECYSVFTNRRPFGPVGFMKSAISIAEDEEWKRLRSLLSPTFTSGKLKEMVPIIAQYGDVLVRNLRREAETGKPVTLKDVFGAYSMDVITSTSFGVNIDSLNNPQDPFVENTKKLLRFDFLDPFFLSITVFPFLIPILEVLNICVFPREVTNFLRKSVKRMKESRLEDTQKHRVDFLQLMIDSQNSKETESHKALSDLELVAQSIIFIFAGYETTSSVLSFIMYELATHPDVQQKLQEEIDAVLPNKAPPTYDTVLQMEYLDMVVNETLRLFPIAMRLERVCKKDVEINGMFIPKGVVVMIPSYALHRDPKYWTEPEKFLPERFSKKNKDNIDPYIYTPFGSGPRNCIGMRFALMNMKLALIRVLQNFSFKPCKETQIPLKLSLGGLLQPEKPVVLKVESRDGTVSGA
Protocol: as §1

CYP2D6 = target: T5, CYP2D6 (Homo sapiens, UniProt P10635); test: as above; format: in vitro ADME
T5 construct: from tissue; host or cells: human liver microsomes
T5 sequence (P10635 whole entry): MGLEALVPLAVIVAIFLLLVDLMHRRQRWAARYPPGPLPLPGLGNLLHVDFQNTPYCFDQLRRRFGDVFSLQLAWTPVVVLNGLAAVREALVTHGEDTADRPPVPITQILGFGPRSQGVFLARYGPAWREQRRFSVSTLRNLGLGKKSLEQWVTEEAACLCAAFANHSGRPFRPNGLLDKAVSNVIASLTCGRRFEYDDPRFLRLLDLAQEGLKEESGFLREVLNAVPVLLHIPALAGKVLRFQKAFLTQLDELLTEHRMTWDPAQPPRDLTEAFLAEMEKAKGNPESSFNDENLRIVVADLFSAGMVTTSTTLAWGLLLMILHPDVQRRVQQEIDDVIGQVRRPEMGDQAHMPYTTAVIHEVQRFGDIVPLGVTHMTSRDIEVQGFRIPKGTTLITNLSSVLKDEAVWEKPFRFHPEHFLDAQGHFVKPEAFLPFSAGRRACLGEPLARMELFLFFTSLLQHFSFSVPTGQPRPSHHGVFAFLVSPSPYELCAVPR
Protocol: as §1

CYP2A6 = target: T6, CYP2A6 (Homo sapiens, UniProt P11509); test: as above; format: in vitro ADME
T6 construct: tissue celsis X008064-LSL; host or cells: human liver microsomes
T6 sequence (P11509 1-494): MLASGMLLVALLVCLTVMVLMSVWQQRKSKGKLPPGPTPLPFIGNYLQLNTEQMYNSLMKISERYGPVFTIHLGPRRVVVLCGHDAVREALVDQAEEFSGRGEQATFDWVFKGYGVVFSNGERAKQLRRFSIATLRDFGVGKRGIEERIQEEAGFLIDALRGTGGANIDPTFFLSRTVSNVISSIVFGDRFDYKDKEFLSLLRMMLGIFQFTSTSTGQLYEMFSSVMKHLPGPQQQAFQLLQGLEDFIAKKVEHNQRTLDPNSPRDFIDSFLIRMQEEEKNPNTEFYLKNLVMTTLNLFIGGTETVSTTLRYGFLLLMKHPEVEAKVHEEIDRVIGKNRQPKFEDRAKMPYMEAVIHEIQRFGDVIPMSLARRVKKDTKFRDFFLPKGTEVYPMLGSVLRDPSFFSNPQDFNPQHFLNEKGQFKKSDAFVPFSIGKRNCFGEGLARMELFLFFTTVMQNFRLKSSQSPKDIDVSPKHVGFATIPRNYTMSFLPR
Protocol: as §1

CYP2B6 = target: T7, CYP2B6 (Homo sapiens, UniProt P20813); test: as above; format: in vitro ADME
T7 construct: tissue celsis M008085JTA; host or cells: human liver microsomes
T7 sequence (P20813 whole entry): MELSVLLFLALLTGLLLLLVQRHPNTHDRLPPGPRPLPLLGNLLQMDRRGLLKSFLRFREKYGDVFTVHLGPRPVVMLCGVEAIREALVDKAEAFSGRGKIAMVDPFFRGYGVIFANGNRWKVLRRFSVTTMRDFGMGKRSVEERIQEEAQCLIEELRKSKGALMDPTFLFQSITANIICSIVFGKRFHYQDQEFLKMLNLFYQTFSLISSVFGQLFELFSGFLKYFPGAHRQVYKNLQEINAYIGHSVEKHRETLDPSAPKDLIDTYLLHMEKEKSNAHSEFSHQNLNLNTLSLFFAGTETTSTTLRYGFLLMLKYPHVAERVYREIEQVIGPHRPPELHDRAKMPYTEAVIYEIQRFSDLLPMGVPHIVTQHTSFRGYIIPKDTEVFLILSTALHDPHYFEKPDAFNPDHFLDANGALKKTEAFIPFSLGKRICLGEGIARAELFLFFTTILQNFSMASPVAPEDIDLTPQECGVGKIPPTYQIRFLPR
Protocol: as §1

anaesthetized rat = test: Effect on normal electrocardiogram; format: in vivo, rats;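 also: standard lead II ECG run at 50 mm/s, taken before dosing and at serial times up to 60 min after iv or 90 min after po administration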
Protocol: The effect on normal electrocardiogram. In vivo electrocardiographic investigations were carried out on using ASPEL ASCARD B5, (Aspel, Poland) apparatus, standard lead II, and paper speed of 50 mm/s. The ECG was recorded just prior to and also 1, 2, 3, 5, 10, 15, 20, 30, 40, 50, and 60 min following the iv or 5, 10, 20, 30, 40, 50, 60, 70, 80, 90 following the po administration of the compound.

T1 sequence (P05181 whole entry): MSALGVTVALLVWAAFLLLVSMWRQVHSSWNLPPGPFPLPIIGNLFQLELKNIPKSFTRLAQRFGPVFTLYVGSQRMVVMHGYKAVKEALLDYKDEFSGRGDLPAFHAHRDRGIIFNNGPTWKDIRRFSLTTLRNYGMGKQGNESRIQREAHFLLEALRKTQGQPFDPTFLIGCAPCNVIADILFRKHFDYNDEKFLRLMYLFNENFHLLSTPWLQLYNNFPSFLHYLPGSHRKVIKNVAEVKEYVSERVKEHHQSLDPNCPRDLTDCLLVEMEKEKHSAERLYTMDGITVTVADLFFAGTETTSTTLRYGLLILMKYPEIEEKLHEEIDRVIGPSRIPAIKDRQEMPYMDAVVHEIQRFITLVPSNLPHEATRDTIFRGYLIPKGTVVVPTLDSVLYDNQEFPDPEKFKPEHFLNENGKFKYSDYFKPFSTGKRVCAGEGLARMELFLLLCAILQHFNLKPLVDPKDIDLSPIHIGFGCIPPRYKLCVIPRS

CCC(CO)NCCOc1c(C)cccc1Cl (stereo not drawn) [Compound 4, R,S-2-((2-(2-chloro-6-methylphenoxy)ethyl)amino)butan-1-ol]
Inhibition type (CYP2E1): Slight inhibition | % inhibition of 500 µM concentration (CYP2E1; 500 µM, substrate at 500.0 µM): 17 (substrate at 500.0 µM) % | Inhibition type (CYP2C9): Slight inhibition | % inhibition of 500 µM concentration (CYP2C9; 500 µM, substrate at 400 µM): 19 (substrate at 400 µM) % | Inhibition type (CYP2C19): Mixed/competitive | Ki (CYP2C19): 54 µM | % inhibition of 500 µM concentration (CYP2C19; 500 µM, substrate at […]): 80 (substrate at 150.0 µM) % | Inhibition type (CYP3A4): Weak inhibition | % inhibition of 500 µM concentration (CYP3A4; 500 µM, substrate at 200.0 µM): 52 (substrate at 200.0 µM) % | Inhibition type (CYP2D6): Mixed/competitive | Ki (CYP2D6): 1.4 µM | % inhibition of 500 µM concentration (CYP2D6; 500 µM, substrate at 100.0 µM): 100 (substrate at 100.0 µM) % | Inhibition type (CYP2A6): Mixed/competitive | Ki (CYP2A6): 371 µM | % inhibition of 500 µM concentration (CYP2A6; 500 µM, substrate at 10 µM): 44 (substrate at 10 µM) % | Inhibition type (CYP2B6): Weak inhibition | % inhibition of 500 µM concentration (CYP2B6; 500 µM, substrate at 25 µM): 69 (substrate at 25 µM) %

CCC(CO)NCCOc1c(C)cccc1Cl (stereo not drawn) [KM-408, R,S-2-((2-(2-chloro-6-methylphenoxy)ethyl)amino)butan-1-ol hydrochloride]
PQ (anaesthetized rat; 5 mg/kg iv, 0 min): 50.5 ± 2.6 ms | QT (anaesthetized rat; 5 mg/kg iv, 0 min): 56.8 ± 3.8 ms | PQ (anaesthetized rat; 5 mg/kg iv, 1 min): 59.5 ± 5.3 ms | QT (anaesthetized rat; 5 mg/kg iv, 1 min): 58.0 ± 3.4 ms | PQ (anaesthetized rat; 5 mg/kg iv, 3 min): 54.8 ± 2.9 ms | QT (anaesthetized rat; 5 mg/kg iv, 3 min): 60.0 ± 2.8 ms | PQ (anaesthetized rat; 5 mg/kg iv, 5 min): 54.4 ± 2.3 ms | QT (anaesthetized rat; 5 mg/kg iv, 5 min): 56.8 ± 3.9 ms | PQ (anaesthetized rat; 5 mg/kg iv, 10 min): 54.0 ± 1.9 ms | QT (anaesthetized rat; 5 mg/kg iv, 10 min): 56.2 ± 4.2 ms | PQ (anaesthetized rat; 5 mg/kg iv, 15 min): 54.4 ± 1.9 ms | QT (anaesthetized rat; 5 mg/kg iv, 15 min): 55.2 ± 4.1 ms | PQ (anaesthetized rat; 5 mg/kg iv, 20 min): 54.4 ± 2.0 ms | QT (anaesthetized rat; 5 mg/kg iv, 20 min): 56.0 ± 4.0 ms | PQ (anaesthetized rat; 5 mg/kg iv, 30 min): 54.8 ± 1.7 ms | QT (anaesthetized rat; 5 mg/kg iv, 30 min): 57.2 ± 3.7 ms | PQ (anaesthetized rat; 5 mg/kg iv, 40 min): 53.6 ± 2.2 ms | QT (anaesthetized rat; 5 mg/kg iv, 40 min): 57.0 ± 3.7 ms | PQ (anaesthetized rat; 5 mg/kg iv, 50 min): 53.6 ± 2.6 ms | QT (anaesthetized rat; 5 mg/kg iv, 50 min): 58.8 ± 3.4 ms | PQ (anaesthetized rat; 5 mg/kg iv, 60 min): 53.6 ± 1.5 ms | QT (anaesthetized rat; 5 mg/kg iv, 60 min): 56.0 ± 4.0 ms | influence on heart rate or ECG intervals (anaesthetized rat; 50 mg/kg po): did not influence | PQ (anaesthetized rat; 50 mg/kg po, 0 min): 55.6 ± 1.8 ms | QT (anaesthetized rat; 50 mg/kg po, 0 min): 55.2 ± 3.9 ms | PQ (anaesthetized rat; 50 mg/kg po, 5 min): 59.2 ± 1.9 ms | QT (anaesthetized rat; 50 mg/kg po, 5 min): 60.0 ± 0.0 ms | PQ (anaesthetized rat; 50 mg/kg po, 10 min): 59.6 ± 2.1 ms | QT (anaesthetized rat; 50 mg/kg po, 10 min): 59.2 ± 0.8 ms | PQ (anaesthetized rat; 50 mg/kg po, 20 min): 59.0 ± 1.0 ms | QT (anaesthetized rat; 50 mg/kg po, 20 min): 58.0 ± 2.0 ms | PQ (anaesthetized rat; 50 mg/kg po, 30 min): 57.4 ± 1.2 ms | QT (anaesthetized rat; 50 mg/kg po, 30 min): 58.4 ± 1.0 ms | PQ (anaesthetized rat; 50 mg/kg po, 40 min): 59.2 ± 1.5 ms | QT (anaesthetized rat; 50 mg/kg po, 40 min): 59.2 ± 0.8 ms | PQ (anaesthetized rat; 50 mg/kg po, 50 min): 58.4 ± 1.0 ms | QT (anaesthetized rat; 50 mg/kg po, 50 min): 58.8 ± 1.2 ms | PQ (anaesthetized rat; 50 mg/kg po, 60 min): 58.4 ± 1.6 ms | QT (anaesthetized rat; 50 mg/kg po, 60 min): 58.8 ± 1.2 ms | PQ (anaesthetized rat; 50 mg/kg po, 70 min): 59.6 ± 1.0 ms | QT (anaesthetized rat; 50 mg/kg po, 70 min): 61.2 ± 4.2 ms | PQ (anaesthetized rat; 50 mg/kg po, 80 min): 59.6 ± 0.4 ms | QT (anaesthetized rat; 50 mg/kg po, 80 min): 60.0 ± 0.0 ms | PQ (anaesthetized rat; 50 mg/kg po, 90 min): 59.6 ± 1.3 ms | QT (anaesthetized rat; 50 mg/kg po, 90 min): 60.0 ± 0.0 ms | PQ (anaesthetized rat; 300 mg/kg po, 0 min): 51.6 ± 3.6 ms | QT (anaesthetized rat; 300 mg/kg po, 0 min): 58.0 ± 2.0 ms | PQ (anaesthetized rat; 300 mg/kg po, 5 min): 51.2 ± 3.4 ms | QT (anaesthetized rat; 300 mg/kg po, 5 min): 57.2 ± 2.0 ms | PQ (anaesthetized rat; 300 mg/kg po, 10 min): 54.8 ± 2.1 ms | QT (anaesthetized rat; 300 mg/kg po, 10 min): 55.6 ± 2.0 ms | PQ (anaesthetized rat; 300 mg/kg po, 20 min): 55.2 ± 2.2 ms | QT (anaesthetized rat; 300 mg/kg po, 20 min): 58.0 ± 2.0 ms | PQ (anaesthetized rat; 300 mg/kg po, 30 min): 55.2 ± 2.2 ms | QT (anaesthetized rat; 300 mg/kg po, 30 min): 58.0 ± 2.0 ms | PQ (anaesthetized rat; 300 mg/kg po, 40 min): 55.2 ± 2.1 ms | QT (anaesthetized rat; 300 mg/kg po, 40 min): 59.2 ± 0.8 ms | PQ (anaesthetized rat; 300 mg/kg po, 50 min): 55.8 ± 2.8 ms | QT (anaesthetized rat; 300 mg/kg po, 50 min): 60.0 ± 0.0 ms | PQ (anaesthetized rat; 300 mg/kg po, 60 min): 56.0 ± 2.8 ms | QT (anaesthetized rat; 300 mg/kg po, 60 min): 59.2 ± 0.8 ms | PQ (anaesthetized rat; 300 mg/kg po, 70 min): 55.4 ± 2.3 ms | QT (anaesthetized rat; 300 mg/kg po, 70 min): 60.0 ± 0.0 ms | PQ (anaesthetized rat; 300 mg/kg po, 80 min): 56.0 ± 2.4 ms | QT (anaesthetized rat; 300 mg/kg po, 80 min): 60.0 ± 0.0 ms | PQ (anaesthetized rat; 300 mg/kg po, 90 min): 56.0 ± 2.4 ms | QT (anaesthetized rat; 300 mg/kg po, 90 min): 59.6 ± 0.4 ms
